Experimental data: paper PMC9688475, “Identification and Analysis of Small Molecule Inhibitors of CRISPR-Cas9 in Human Cells” (Cells, 2022)
Several values for one entry are separate records, joined by “and”; a condition that tells them apart may be missing. Equal values may be shown once.

Legend:
dSpCas9–gRNA complex = assay: Competitive fluorescence polarization assay, dSpCas9-gRNA; assay type: binding, Streptococcus pyogenes; settings: FITC-DNA 25 nM, compounds 50 μM, PAM-DNA 1.25 μM
SpCas9 [1] = biological target: T1, SpCas9 (Streptococcus pyogenes serotype M1, UniProt Q99ZW2); assay: Inhibition of SpCas9 nuclease activity in EGFP/iCas9/gRNA-EGFP reporter 293T cells (flow cytometry); assay type: cell-based; set-up: expressed in transfected cells; host or cells: H2AX-EGFP HEK293T cells, lentiviral transduction, doxycycline-induced
T1 sequence (Q99ZW2 whole entry): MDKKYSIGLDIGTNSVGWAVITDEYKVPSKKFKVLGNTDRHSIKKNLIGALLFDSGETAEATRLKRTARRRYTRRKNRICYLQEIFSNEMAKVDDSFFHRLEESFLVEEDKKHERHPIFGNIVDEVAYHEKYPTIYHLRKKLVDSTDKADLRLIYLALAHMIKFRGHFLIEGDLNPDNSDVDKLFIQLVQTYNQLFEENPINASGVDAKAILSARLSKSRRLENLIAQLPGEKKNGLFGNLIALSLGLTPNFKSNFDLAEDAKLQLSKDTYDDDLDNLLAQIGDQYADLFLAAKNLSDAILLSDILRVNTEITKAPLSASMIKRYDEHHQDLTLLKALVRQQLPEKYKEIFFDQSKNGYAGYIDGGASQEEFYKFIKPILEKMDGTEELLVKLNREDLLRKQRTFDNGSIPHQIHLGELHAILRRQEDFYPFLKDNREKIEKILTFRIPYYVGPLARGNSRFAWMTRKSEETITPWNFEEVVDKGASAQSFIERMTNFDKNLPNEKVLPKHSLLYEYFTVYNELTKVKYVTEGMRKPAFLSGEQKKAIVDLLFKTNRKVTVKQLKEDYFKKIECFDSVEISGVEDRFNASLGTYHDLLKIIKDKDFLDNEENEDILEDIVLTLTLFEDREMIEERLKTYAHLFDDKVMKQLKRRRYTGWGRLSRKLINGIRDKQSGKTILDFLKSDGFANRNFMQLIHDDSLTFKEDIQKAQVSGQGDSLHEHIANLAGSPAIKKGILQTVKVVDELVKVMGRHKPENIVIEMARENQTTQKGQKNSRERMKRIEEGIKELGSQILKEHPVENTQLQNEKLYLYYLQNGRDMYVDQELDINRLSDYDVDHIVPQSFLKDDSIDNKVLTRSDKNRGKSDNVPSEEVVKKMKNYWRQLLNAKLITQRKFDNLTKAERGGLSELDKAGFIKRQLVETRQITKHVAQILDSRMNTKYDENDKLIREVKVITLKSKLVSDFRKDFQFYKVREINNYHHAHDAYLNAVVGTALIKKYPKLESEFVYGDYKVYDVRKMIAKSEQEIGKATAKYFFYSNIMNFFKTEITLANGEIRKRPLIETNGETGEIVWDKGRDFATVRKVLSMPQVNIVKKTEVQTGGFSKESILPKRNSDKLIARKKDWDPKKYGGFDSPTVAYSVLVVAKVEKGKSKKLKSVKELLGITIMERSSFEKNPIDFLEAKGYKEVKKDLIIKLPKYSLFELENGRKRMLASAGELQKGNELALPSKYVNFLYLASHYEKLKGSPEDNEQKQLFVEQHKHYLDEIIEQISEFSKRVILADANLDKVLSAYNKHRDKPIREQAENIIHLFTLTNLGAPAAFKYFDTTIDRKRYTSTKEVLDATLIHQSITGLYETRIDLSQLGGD
From the text: The H2AX-EGFP 293T cell line was first generated using the previously reported MMEJ-mediated CRIS-PITCh system. Briefly, we cloned two gRNAs (Supplementary Table S3) that respectively target H2AX gene and the PITCh vector into the px330 plasmid (Addgene, #42230). The PITCh vector contains a pair of 20-bp homologous sequences targeting the upstream and downstream regions of the H2AX gRNA cleavage site, and the SFB-EGFP expression cassette. The three plasmids were co-transfected into 293T cells at an equimolar ratio. GFP-positive cells were sorted by FACS and individually expanded to isolate single clones for genomic DNA extraction and PCR verification of successful knock-in (KI) of the SFB-EGFP cassette into 5′-end of first exon of the H2AX gene. The selected H2AX-EGFP 293T cell clone was subsequently infected with lentiviruses encoding tetracycline-inducible SpCas9 (iCas9). After drug selection, individual clones were again expanded and verified for inducible Cas9 expression. The selected clone was subsequently infected with lentivirus encoding a gRNA that targets EGFP. Puromycin-resistant clones ([…], Thermo Fisher Scientific) were then isolated after >7 days for further analysis.

SpCas9 [2] = biological target: T1, SpCas9; assay: On- and off-target editing at endogenous loci in iCas9 U2OS cells (deep sequencing); assay type: cell-based; set-up: expressed in transfected cells; settings: +Dox
Description: The iCas9-expressing U2OS cells were first through lentiviral infection. The cells were cultured with 1 μg/mL puromycin until all cells in the negative control group were dead. Monoclonal cells were then isolated and verified. Lentiviruses encoding appropriate gRNAs were used to infect the iCas9 U2OS cells, which were further selected with 10 μg/mL Blasticidin S HCL (Gibco, New York, NY, USA) until all cells in the control group were dead. The iCas9/gRNA cells were then plated in 12-well plates (Thermo Fisher Scientific) at ~40% confluence per well at 24 h before the doxycycline (2 μg/mL) addition. An individual inhibitor compound was also added at this point at the appropriate concentrations. DMSO alone served as the control. Cells cultured without doxycycline served as the SpCas9 cleavage control. After 24 h, cells were collected for genomic DNA extraction using the AxyPrep blood genomic DNA miniprep kit (Axygen, New York, NY, USA). Sequences surrounding the on- and off-target sites were amplified using barcoded primers (Supplementary Table S3) and the KOD PCR kit (Toyobo, Japan) to generate the sequencing libraries. Single-read sequencing of the pooled samples were performed on the 150 Hiseq 2000 (Illumina, San Diego, CA, USA). Each experiment was repeated twice. MATLAB was used to split the sequencing file and CRISPResso2 [38] was used to analyze the frequency of indels.

LbCas12a = LbCas12a in vitro cleavage assay; assay type: biochemical; settings: 100 μM
Description: In vitro cleavage experiments were performed using purified recombinant LbCas12a proteins similar to SpCas9 cleavage assays. LbCas12a proteins (50 nM), crRNA (50 nM), and different concentrations of the inhibitor compounds were mixed in NEBuffer 2 (New England Biolabs). After incubation at room temperature for 10 min, ScaI-linearized pUC19 DNA was added to a final concentration of 1.52 nM. The solution was vortex mixed and centrifuged, then incubated for 45 min in a water bath at 37 °C. The reaction was quenched with 0.5 μL proteinase K for 15 min at 56 °C. The samples were mixed with DNA loading buffers and resolved by 1.2% TAE agarose gel electrophoresis. Gel bands were visualized by Chemidoc XRS plus system (Bio-Rad, Hercules, CA, USA).

SpCas9–gRNA complex [3] = biological target: T2, SpCas9–gRNA complex (Streptococcus pyogenes serotype M1, UniProt Q99ZW2); assay: Competitive fluorescence polarization assay, SpCas9-gRNA; assay type: binding
T2 construct: His6 (N); TEV site (N); made in house; host or cells: E. coli BL21 Star (DE3)
T2 sequence (Q99ZW2 whole entry, one chain of several): as the sequence (Q99ZW2 whole entry) above

[4] = tested on: Flag-tagged SpCas9 protein expression; settings: western blot, GAPDH loading control, concentrations tested
Description: The reporter 293T cells were seeded into 96-well plates at a density of 10,000 cells per well and cultured overnight before the addition of DMSO alone or various compounds (in DMSO solution) at appropriate concentrations (0.125–100 μM) with or without 2 μg/mL doxycycline for an additional 72 h of incubation. The cells were then harvested for analysis with the CytoFLEX flow cytometer (Beckman Coulter, Brea, CA, USA) or analyzed by western blot with antibodies as indicated. […] The inhibiting efficiency in reporter 293T cells was calculated using the following equation: E’ = (P2 − P1)/(P0 − P1) × 100%, where E’ is the inhibiting efficiency in reporter 293T cells, and P0, P1, and P2 are the GFP positive cell ratio of the uninduced group, Dox and DMSO treated control group, and Dox and compound treated group, respectively.

SpCas9 [5] = biological target: T1, SpCas9; assay: Microscale thermophoresis (MST), SpCas9; assay type: binding; set-up: His6 (N); TEV site (N); made in house; host or cells: E. coli BL21 Star (DE3); settings: SpCas9–EGFP fusion protein 200 nM, 25 °C
Description: (§1) The MST method was carried out similar to the previous report. The binding ability of the compounds to SpCas9 in different states was tested by Monolith NT.115 (NanoTemper Technologies, Munich, Germany). The SpCas9-EGFP fusion protein or the SpCas9-EGFP/gRNA RNP complex (protein: gRNA = 1:1) was diluted with a binding buffer (50 mM Tris-HCl, pH 7.4, 150 mM NaCl, 0.05% Tween-20, and 10 mM MgCl2) to make a final concentration of 200 nM. The protein diluent was mixed with the compound diluent in equal volume. The mixture was kept at room temperature for 10 min. Then the sample was loaded into the NanoTemper standard capillaries. All experiments were carried out at 25 °C, 80% MST power, and 50% LED power. The data were analyzed with the NanoTemper MO affinity analysis software (NanoTemper Technologies, Munich, Germany). The raw data were then exported and plotted with Origin 2020b (OriginLab, Northampton, MA, USA).

SpCas9–gRNA complex [6] = biological target: T2, SpCas9–gRNA complex; assay: Microscale thermophoresis (MST), SpCas9-gRNA RNP; assay type: binding; settings: SpCas9-EGFP/gRNA RNP (1:1) 200 nM, 25 °C
Description: as §1

FITC-DNA = settings: compared with DMSO, no SpCas9
Description: The fluorescence polarization experiment was as previously reported [33]. […] The DNA was labeled at the 3′ end with fluorescein isothiocyanate (FITC). The other one is complementary to the first 58 bases of the previous oligonucleotide. These two oligonucleotides were annealed to generate the target DNA substrate labeled with fluorescent molecules (FITC-DNA). Unlabeled DNA (PAM-DNA) was considered competitive positive controls. Experiments were performed on black 384-well plates (Corning, New York, NY, USA). 50 nM SpCas9-gRNA (1:1) and different concentrations of the compound were added to the reaction buffer (50 mM Tris-HCl, pH 8.0, 0.1 M NaCl, 10 mM MgCl2, and 1 mM DTT). PAM-DNA (1250 nM) was used as a positive control. The mixture was then incubated at room temperature for 30 min, and FITC-DNA was added to the final concentration of 25 nM in each well. Fluorescence polarization signals were measured using a multilabel reader (Victor X5, PerkinElmer, Waltham, MA, USA) within 10 min. These values were plotted using GraphPad Prism 6.0 software (San Diego, CA, USA).

CC1(C)CC(=NNc2ccc([N+](=O)[O-])cc2[N+](=O)[O-])CC(C)(C)N1C(=O)COCC(=O)N1C(C)(C)CC(=NNc2ccc([N+](=O)[O-])cc2[N+](=O)[O-])CC1(C)C [SP2]
Fluorescence Polarization (mP) (dSpCas9–gRNA complex): 209.5 mP | SpCas9 inhibition in reporter cells (SpCas9 [1]; 10 μM, Dox 2 μg/mL, 72 h): 50% | inhibitory activity in reporter cells (in words) (SpCas9 [1]; from 40 to 2 μM): changed little | EC50 (SpCas9 [1]; titration, Dox 2 μg/mL, 72 h, flow cytometry): 5.07 µM | reduction of SpCas9 off-target editing, EMX1-2 (SpCas9 [2]; 2.5 μM): 63.3% | Indel (%) EMX1-1 Off-target (SpCas9 [2]; 24 h, SP2 2.5 μM, SP24 0.5 μM): 21.7% | Indel (%) EMX1-1 On-target (SpCas9 [2]; 24 h, SP2 2.5 μM, SP24 0.5 μM): 42.2% | Indel (%) EMX1-2 Off-target (SpCas9 [2]; 24 h, SP2 2.5 μM, SP24 0.5 μM): 1.1% | Indel (%) EMX1-2 On-target (SpCas9 [2]; 24 h, SP2 2.5 μM, SP24 0.5 μM): ~ 18% and 17.8% | Indel (%) ZSCAN2 Off-target (SpCas9 [2]; 24 h, SP2 2.5 μM, SP24 0.5 μM): 6.7% | Indel (%) ZSCAN2 On-target (SpCas9 [2]; 24 h, SP2 2.5 μM, SP24 0.5 μM): 32.2% | ratio of on-target vs. off-target indels, EMX1-1 (SpCas9 [2]; 24 h, SP2 2.5 μM, SP24 0.5 μM): 1.94 x | ratio of on-target vs. off-target indels, EMX1-2 (SpCas9 [2]; 24 h, SP2 2.5 μM, SP24 0.5 μM): 16.18 x | ratio of on-target vs. off-target indels, ZSCAN2 (SpCas9 [2]; 24 h, SP2 2.5 μM, SP24 0.5 μM): 4.81 x | Indel (%) VEGFA-3 Off-target (SpCas9 [2]; 24 h, SP2 2.5 μM, SP24 1 μM): 1.4% | Indel (%) VEGFA-3 On-target (SpCas9 [2]; 24 h, SP2 2.5 μM, SP24 1 μM): 35.2% | ratio of on-target vs. off-target indels, VEGFA-3 (SpCas9 [2]; 24 h, SP2 2.5 μM, SP24 1 μM): 25.14 x | inhibition of LbCas12a-mediated cleavage (LbCas12a): no inhibition | change of FP signals of SpCas9-gRNA and DNA (SpCas9–gRNA complex [3]; 50 μM): < 5% | Fluorescence Polarization (mP) (SpCas9–gRNA complex [3]; SpCas9+gRNA 50 nM, FITC-DNA 25 nM, compounds 50 μM, PAM-DNA 1.25 μM): 160.5 mP | effect on SpCas9 expression [4]: Neither compound appeared to affect SpCas9 expression | EC50 (SpCas9 [5]): 44.2 ± 35.4 µM | EC50 (SpCas9–gRNA complex [6]): 5.63 ± 3.65 µM | effect on fluorescence polarization value of fluorescence-labeled DNA (FITC-DNA): did not affect
